Consider 13 compounds from US12540137B2, “N-1 branched alkyl ether substituted imidazo[4,5-c]quinoline compounds, compositions, and methods” (Solventum Intellectual Properties Company, priority 2018, dated 2026).

Each structure is given as a SMILES string. Like-named read-outs stand apart in the source and are kept apart here.

In the assay the test system is Human peripheral blood mononuclear cells (PBMC). Kind of assay: Cytokine induction in human cells (PBMC). It counts as cell-based. Particulars: for minimal effective concentration / MEC to Induce Cytokine TNF-alpha: human PBMC, 21-24 hours culture, lowest concentration giving cytokine level at least 2× negative control. On the procedure: Whole blood was obtained from healthy human donors and collected by venipuncture into vacutainer tubes or syringes containing EDTA. Human peripheral blood mononuclear cells (PBMC) were purified from the whole blood by density gradient centrifugation. Histopaque 1077 (15 mL, Sigma, St. Louis, MO) was transferred to 6×50 mL sterile polypropylene conical tubes. The Histopaque was overlayed with 15-25 mL of blood diluted 1:2 in Hank's Balanced Salts Solution (HBSS) (Gibco, Life Technologies, Grand Island, NY). The tubes were then centrifuged at 1370 rpm for 30 minutes at 20° C., with no brake (400×g, GH 3.8A Rotor).
The interface (buffy coat) containing the PBMC was collected and placed in a new sterile 50 ml conical polypropylene centrifuge tube. The PBMC were mixed with an equal volume of HBSS (about 20 mL from the interface and about 20 mL of HBSS), and then centrifuged at 1090 rpm, 10 minutes, 20° C., with brake (270×g, GH 3.8A Rotor). After completing centrifugation, the cells were resuspended in 2-3 mL ACK Red blood cell lysis buffer (ammonium chloride potassium solution, Gibco, Life Technologies) and incubated for 2-5 minutes at 20° C. Next, HBSS (40 mL) was added to the cells, and the sample was centrifuged at 270×g for 10 minutes at 20° C. The supernatant was decanted, and the cell pellet was resuspended in 5 mL AIM V Medium (Gibco, Life Technologies). Cell aggregates and debris were removed by filtering the cell solution through a BD Falcon 70 micron nylon cell strainer (BD Biosciences, San Jose, CA).
The number of viable cells was determined by counting with a Miltenyi FACS instrument (Miltenyi Biotec Inc., San Diego, CA) or by using a hemocytometer. For determining cell viability with a hemocytometer, the cells were diluted 1/10 in 0.4% trypan blue and HBSS (specifically, 50 microliter of trypan blue+40 microliter of HBSS+10 microliter of cell solution were added to a microfuge tube and mixed). Ten microliters of the diluted cells were then applied to the hemocytometer, and the number of viable PBMC were determined by microscopy.
The PBMC sample was then resuspended in 96-well plates at a concentration of 8×10^5 cells/well in 0.1 mL of AIM-V medium. Each compound was solubilized in dimethyl sulfoxide (DMSO) to create a 3 mM stock solution. The stock solution was then further diluted with AIM-V medium to prepare the serial dilutions. The diluted compound (100 microliters) was then transferred to the PBMCs to produce testing sets with final compound concentrations of either 30, 10, 3.3, 1.1, 0.37, 0.12, 0.04, 0.01 micromolar (testing set A); 30, 10, 3.3, 1.1, 0.37, 0.12, 0.04 micromolar (testing set B); 100, 33.3, 11.1, 3.7, 1.2, 0.4 micromolar (testing set C); or 3.0, 1.0, 0.33, 0.11, 0.037, 0.012, 0.004, 0.0014 micromolar (testing set D). The plates also had both positive and negative controls. The negative control wells contained only AIM-V medium with no example compound. The positive control wells contained a control set of imiquimod serially diluted to concentrations of either 30, 10, 3.3, 1.1, 0.37, 0.12, 0.04, 0.01 micromolar (control set A); 30, 10, 3.3, 1.1, 0.37, 0.12, 0.04 micromolar (control set B); 100, 33.3, 11.1, 3.7, 1.2, 0.4 micromolar (control set C); or 3.0, 1.0, 0.33, 0.11, 0.037, 0.012, 0.004, 0.0014 micromolar (control set D). The concentrations used in the control set were selected to match the concentrations used in the testing set. The plates were then cultured at 37° C./5% CO2 for 21-24 hours. Cell-free supernatants were harvested by centrifuging the 96-well plates at 2100 rpm, 23° C. for 10 minutes. Approximately 160 microliters of the supernatant were then stored in a NUNC 96-well plate, covered with the compression cap and stored at −80° C. until the cytokine analysis was done.
IFN-alpha cytokine levels (picograms/mL) were measured by ELISA (human IFN-alpha, pan specific, Mabtech, Cincinnati, OH). […]

Where [1] appears, read: ELISA, read-out: MEC to Induce Cytokine IFN-alpha.
Where [2] appears, read: multiplex bead assay, read-out: MEC to Induce Cytokine IFN-gamma.

For `CCOC[C@H](C(C)C)n1cnc2c(N)nc3ccccc3c21` [Example 1, 1-[(1S)-1-(ethoxymethyl)-2-methyl-propyl]imidazo[4,5-c]quinolin-4-amine], the minimal effective concentration reads like this: under setting [1], at most 0.04 µM; under setting [2], at most 0.04 µM. The “MEC to Induce Cytokine TNF-alpha” value (multiplex bead assay) was at most 0.04 µM.
Consider `CCOC[C@@H](C(C)C)n1cnc2c(N)nc3ccccc3c21` [Example 2, 1-[(1R)-1-(ethoxymethyl)-2-methyl-propyl]imidazo[4,5-c]quinolin-4-amine], for which the minimal effective concentration by setting is: under setting [1], 3.3 µM; under setting [2], above 30 µM. In addition, the “MEC to Induce Cytokine TNF-alpha” value (multiplex bead assay) amounted to 3.3 µM.
Turning to `CCOC[C@H](C(C)C)n1c(C)nc2c(N)nc3ccccc3c21` [Example 3, 1-[(1S)-1-(ethoxymethyl)-2-methyl-propyl]-2-methyl-imidazo[4,5-c]quinolin-4-amine], the minimal effective concentration by setting is: under setting [1], 0.37 µM; under setting [2], 1.1 µM. Besides, under “multiplex bead assay”, the “MEC to Induce Cytokine TNF-alpha” value came out at 0.37 µM.
As for `CCOC[C@@H](C(C)C)n1c(C)nc2c(N)nc3ccccc3c21` [Example 4, 1-[(1R)-1-(ethoxymethyl)-2-methyl-propyl]-2-methyl-imidazo[4,5-c]quinolin-4-amine], the minimal effective concentration under setting [1] turned out to be 10 µM and the minimal effective concentration under setting [2] was above 30 µM. For the same compound, the “MEC to Induce Cytokine TNF-alpha” value (multiplex bead assay) was 10 µM.
As to `CCOC[C@@H](n1cnc2c(N)nc3ccccc3c21)C(C)(C)O` [Example 5, (3R)-3-(4-aminoimidazo[4,5-c]quinolin-1-yl)-4-ethoxy-2-methyl-butan-2-ol], the minimal effective concentration amounted to 0.12 µM under setting [1] and 0.12 µM under setting [2]. Moreover, the “MEC to Induce Cytokine TNF-alpha” value (multiplex bead assay) is 0.04 µM.
`CCOC[C@H](n1cnc2c(N)nc3ccccc3c21)C(C)(C)O` [Example 6, (3S)-3-(4-aminoimidazo[4,5-c]quinolin-1-yl)-4-ethoxy-2-methyl-butan-2-ol]: the minimal effective concentration runs as follows: under setting [1], above 100 µM; under setting [2], above 100 µM. Also, the “MEC to Induce Cytokine TNF-alpha” value (multiplex bead assay) was above 100 µM. Also, the “activity toward cytokine production” value (statement in the description) is “inactive toward cytokine production”.
On to `CCOC[C@@H](n1c(C)nc2c(N)nc3ccccc3c21)C(C)(C)O` [Example 7, (3R)-3-(4-amino-2-methyl-imidazo[4,5-c]quinolin-1-yl)-4-ethoxy-2-methyl-butan-2-ol], for which the minimal effective concentration runs as follows: under setting [1], 0.12 µM; under setting [2], 0.37 µM.
The like results for `CCOC[C@@H](n1c(CC)nc2c(N)nc3ccccc3c21)C(C)(C)O` [Example 8, (3R)-3-(4-amino-2-ethyl-imidazo[4,5-c]quinolin-1-yl)-4-ethoxy-2-methyl-butan-2-ol] were, in that order, 10 µM and 3.3 µM.
As to `CCOC[C@@H](n1cnc2c(N)nc3ccccc3c21)C(C)(C)C` [Example 9, 1-[(1S)-1-(ethoxymethyl)-2,2-dimethyl-propyl]imidazo[4,5-c]quinolin-4-amine], the minimal effective concentration amounted to 0.004 µM under setting [1] and 0.012 µM under setting [2]. Further, the “MEC to Induce Cytokine TNF-alpha” value (multiplex bead assay) is 0.004 µM.
As to `CCOC[C@H](n1cnc2c(N)nc3ccccc3c21)C(C)(C)C` [Example 10, 1-[(1R)-1-(ethoxymethyl)-2,2-dimethyl-propyl]imidazo[4,5-c]quinolin-4-amine], the minimal effective concentration is, setting by setting: under setting [1], 3 µM; under setting [2], 3 µM. In addition, the “MEC to Induce Cytokine TNF-alpha” value (multiplex bead assay) is 3.0 µM.
On to `COC[C@@H](n1cnc2c(N)nc3ccccc3c21)C(C)(C)C` [Example 11, 1-[(1S)-1-(methoxymethyl)-2,2-dimethyl-propyl]imidazo[4,5-c]quinolin-4-amine], for which the minimal effective concentration by setting is: under setting [1], at most 0.4 µM; under setting [2], at most 0.4 µM. Further, the “MEC to Induce Cytokine TNF-alpha” value (multiplex bead assay) was at most 0.4 µM.
On to `CCOC[C@@H](n1cnc2c(N)nc3ccccc3c21)C(O)(CC)CC` [Example 12, (2R)-2-(4-aminoimidazo[4,5-c]quinolin-1-yl)-1-ethoxy-3-ethyl-pentan-3-ol], for which the minimal effective concentration under setting [1] is 0.04 µM and the minimal effective concentration under setting [2] was 0.12 µM.
As for `CCO[C@@H](C)[C@@H](n1cnc2c(N)nc3ccccc3c21)C(C)(C)O` [Example 13, (3R,4S)-3-(4-aminoimidazo[4,5-c]quinolin-1-yl)-4-ethoxy-2-methyl-pentan-2-ol], the minimal effective concentration runs as follows: under setting [1], 3.3 µM; under setting [2], 10 µM. In addition, the “MEC to Induce Cytokine TNF-alpha” value (multiplex bead assay) was 10 µM.
